The source of these data is ChEMBL document CHEMBL3120101, “Synthesis, biological evaluation, hydration site thermodynamics, and chemical reactivity analysis of α-keto substituted peptidomimetics for the inhibition of Plasmodium falciparum” (Bioorg Med Chem Lett, 2014).

Assay [1] concerns the target T1, Falcipain 2 (Plasmodium falciparum, UniProt Q9N6S8).
T1 sequence (Q9N6S8 whole entry): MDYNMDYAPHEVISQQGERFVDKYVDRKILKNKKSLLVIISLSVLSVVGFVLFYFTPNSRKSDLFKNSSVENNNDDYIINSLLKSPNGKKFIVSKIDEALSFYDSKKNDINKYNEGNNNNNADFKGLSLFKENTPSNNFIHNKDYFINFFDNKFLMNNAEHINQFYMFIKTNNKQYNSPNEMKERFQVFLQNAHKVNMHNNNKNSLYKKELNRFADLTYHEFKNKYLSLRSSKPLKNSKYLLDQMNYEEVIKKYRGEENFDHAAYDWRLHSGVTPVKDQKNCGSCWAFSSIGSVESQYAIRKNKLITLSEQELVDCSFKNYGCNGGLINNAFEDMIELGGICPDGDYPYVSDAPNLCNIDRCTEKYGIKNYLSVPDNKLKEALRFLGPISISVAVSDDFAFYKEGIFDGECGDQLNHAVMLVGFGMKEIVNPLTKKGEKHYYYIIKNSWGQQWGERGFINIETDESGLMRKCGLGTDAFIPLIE
The experiment in a line: Inhibition of Plasmodium falciparum cysteine protease falcipain-2.

The target of assay [2] is T2, Cysteine protease falcipain-3 (Plasmodium falciparum, UniProt Q9NAW4).
T2 sequence (Q9NAW4 whole entry): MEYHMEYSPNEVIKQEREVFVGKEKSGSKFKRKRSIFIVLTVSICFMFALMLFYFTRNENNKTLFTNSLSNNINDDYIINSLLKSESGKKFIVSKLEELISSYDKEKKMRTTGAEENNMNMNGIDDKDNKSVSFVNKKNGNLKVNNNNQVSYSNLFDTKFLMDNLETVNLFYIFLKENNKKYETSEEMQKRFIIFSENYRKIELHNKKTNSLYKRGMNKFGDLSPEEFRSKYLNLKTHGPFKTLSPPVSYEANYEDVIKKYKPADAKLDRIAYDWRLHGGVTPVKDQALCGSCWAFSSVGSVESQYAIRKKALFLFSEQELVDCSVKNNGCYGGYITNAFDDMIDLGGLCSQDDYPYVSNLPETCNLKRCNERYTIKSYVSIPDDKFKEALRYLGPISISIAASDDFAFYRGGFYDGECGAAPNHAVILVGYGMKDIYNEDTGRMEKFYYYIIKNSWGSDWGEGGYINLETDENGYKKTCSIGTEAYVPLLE
The experiment in a line: Inhibition of Plasmodium falciparum cysteine protease falcipain-3.

For assay [3], the system named is Plasmodium falciparum. The experiment in a line: Antimicrobial activity against chloroquine-resistant Plasmodium falciparum W2 assessed as growth inhibition. The assay is classed as functional, organism-based.

As for `O=C(CO)[C@H](CCc1ccccc1)NC(=O)[C@@H]1CCCN1C(=O)OCc1ccccc1`, the IC50 in assay [1], in assay [2] and in assay [3] was greater than 50 µM in each case.

As for `O=C(CSCCCc1ccccc1)[C@H](CCc1ccccc1)NC(=O)[C@@H]1CCCN1C(=O)OCc1ccccc1`, the IC50 in assay [1] is 48.1 µM; in assay [2] it was greater than 50 µM; in assay [3] it was 13.8 µM.

Take `CC(=O)SCC(=O)[C@H](CCc1ccccc1)NC(=O)[C@@H]1CCCN1C(=O)OCc1ccccc1`: the IC50 in assay [1] is greater than 50 µM; in assay [2], 36.4 µM; in assay [3], 18.1 µM.

For `CC(=O)OCC(=O)[C@H](CCc1ccccc1)NC(=O)[C@@H]1COC(C)(C)N1C(=O)OCc1ccccc1`, the IC50 in assay [1], in assay [2] and in assay [3] was greater than 50 µM throughout.

With `CC1(C)OC[C@@H](C(=O)N[C@@H](CCc2ccccc2)C(=O)CO)N1C(=O)OCc1ccccc1`, the IC50 in assay [1], in assay [2] and in assay [3] was greater than 50 µM throughout.

Turning to `O=C(N[C@H]1CCCC[C@H]1C(=O)N[C@@H](CCc1ccccc1)C(=O)CO)OCc1ccccc1`, the IC50 in assay [1] is 5.52 µM; in assay [2], 0.54 µM; in assay [3], greater than 50 µM.

For the molecule `O=C(N[C@@H]1CCCC[C@@H]1C(=O)N[C@@H](CCc1ccccc1)C(=O)CO)OCc1ccccc1`, the IC50 in assay [1] was 4.42 µM; in assay [2] it was 0.91 µM; in assay [3], 47.6 µM.

As for `O=C(N[C@H]1CC=CC[C@H]1C(=O)N[C@@H](CCc1ccccc1)C(=O)CO)OCc1ccccc1`, the IC50 was greater than 50 µM in assay [1], 20.2 µM in assay [2] and greater than 50 µM in assay [3].

As for `O=C(N[C@H]1CCC[C@H]1C(=O)N[C@@H](CCc1ccccc1)C(=O)CO)OCc1ccccc1`, the IC50 in assay [1] is greater than 50 µM; in assay [2], 23.9 µM; in assay [3] it was greater than 50 µM.

`CC(=O)OCC(=O)[C@H](CCc1ccccc1)NC(=O)[C@@H]1Cc2ccccc2CN1C(=O)OCc1ccccc1`: the IC50 in assay [1], in assay [2] and in assay [3] was greater than 50 µM throughout.

Take `O=C(CO)[C@H](CCc1ccccc1)NC(=O)[C@@H]1Cc2ccccc2CN1C(=O)OCc1ccccc1`: the IC50 in assay [1], in assay [2] and in assay [3] was greater than 50 µM each time.

Consider `O=C1CCC(NC(=O)OCc2ccccc2)(C(=O)N[C@@H](CCc2ccccc2)C(=O)CO)CC1`, for which the IC50 in assay [1] was greater than 50 µM; in assay [2], 47.2 µM; in assay [3], 23.3 µM.

Regarding `CC(=O)OCC(=O)[C@H](CCc1ccccc1)NC(=O)C1(NC(=O)OCc2ccccc2)CCSCC1`, the results for the IC50 in assay [1], in assay [2] and in assay [3] were 33.9 µM, greater than 50 µM and greater than 50 µM, respectively.

For the molecule `O=C(NC1(C(=O)N[C@@H](CCc2ccccc2)C(=O)CO)CCSCC1)OCc1ccccc1`, the results for the half-maximal inhibitory concentration (IC50) in assay [1], in assay [2] and in assay [3] were 3.25 µM, 8.22 µM and 28.2 µM, respectively.

Take `CC(=O)OCC(=O)[C@H](CCc1ccccc1)NC(=O)[C@H](CCc1ccccc1)NC(=O)OCc1ccccc1`: the IC50 was 29.7 µM in assay [1], greater than 50 µM in assay [2] and greater than 50 µM in assay [3].

In the case of `O=C(N[C@@H](CCc1ccccc1)C(=O)N[C@@H](CCc1ccccc1)C(=O)CO)OCc1ccccc1`, the IC50 came out at 30.1 µM in assay [1], 11.9 µM in assay [2] and 37.2 µM in assay [3].

Regarding `CC(=O)OCC(=O)[C@H](CCc1ccccc1)NC(=O)C1C2C=CC(C2)C1NC(=O)OCc1ccccc1` (stereo partly specified), the half-inhibitory concentration (IC50) in assay [1], in assay [2] and in assay [3] was greater than 50 µM each time.

For the molecule `O=C(NC1C2C=CC(C2)C1C(=O)N[C@@H](CCc1ccccc1)C(=O)CO)OCc1ccccc1` (stereo partly specified), the values for the IC50 in assay [1], in assay [2] and in assay [3] were 33.6 µM, 25.4 µM and 47.2 µM, respectively.

`O=C(CO)[C@H](CCc1ccccc1)NC(=O)[C@@H]1C[C@@H](O)CN1C(=O)OCc1ccccc1`: the IC50 is 0.08 µM in assay [1], 0.06 µM in assay [2] and 7.7 µM in assay [3].

For `O=C(CSCCCc1ccccc1)[C@H](CCc1ccccc1)NC(=O)[C@@H]1C[C@@H](O)CN1C(=O)OCc1ccccc1`, the results for the IC50 in assay [1], in assay [2] and in assay [3] were 1.1 µM, 0.52 µM and 19.6 µM, respectively.

On to `CC(=O)SCC(=O)[C@H](CCc1ccccc1)NC(=O)[C@@H]1C[C@@H](O)CN1C(=O)OCc1ccccc1`, for which the IC50 in assay [1] was greater than 50 µM; in assay [2], 3.56 µM; in assay [3] it was 18.6 µM.

Consider `O=C(CN1CCOCC1)[C@H](CCc1ccccc1)NC(=O)[C@@H]1C[C@@H](O)CN1C(=O)OCc1ccccc1`, for which the IC50 in assay [1] is greater than 50 µM; in assay [2], greater than 50 µM; in assay [3], 10.2 µM.

Broadly, the IC50 is the concentration that gives 50% inhibition.
